Results on 38 compounds are retold here after patent US20160368872A1, “COMPOUNDS AND METHODS FOR TREATING CANCERS” (HEALTH RESEARCH, INC., priority 2013, published 2016).

What all share (assay): inhibition of growth of cell lines (IC50 categories)
Assay type in all cases: cell-based

For assay [1], the system named is PC3. The note with it: Homo sapiens, PC-3. On the procedure: (§1) This example provides a table (below) of the compounds of the present disclosure and their activity towards four different cell lines (i.e., CWR22R, Hela, PC3, and MDA-MB-231). The IC50 for inhibition of growth is divided into 4 categories: A<1 μM, B 1-5 μM, […], D>20 μM.
(§2) All compounds were tested for toxicity using 4 cells lines, target cells-CWR22R and non-target cells, Hela, PC3 and MDA-MB-231 (FIGS. 1A-F).

Assay [2] deals with CWR22R. The note with it: Homo sapiens, 22Rv1. On the procedure:
as §1, §2

Assay [3] has as its system MDA-MB-231. The note with it: Homo sapiens. On the procedure:
as §1, §2

Assay [4] has as its system Hela. The note with it: Homo sapiens. As for the experimental part:
as §1, §2

Usually IC50 stands for the concentration that gives 50% inhibition. For the compound `N#Cc1cccc2c1c1c3cc[nH]c(=O)c3ccc1n2CCCF` [Compound 8-3], the half-maximal inhibitory concentration (IC50) in assay [1] was above 20 µM; in assay [2], 1 to 5 µM; in assay [3], above 20 µM; in assay [4] it was above 20 µM.

Turning to `CCCn1c2ccccc2c2c3nc[nH]c(=O)c3ccc21` [Compound 5-1, 7-Propyl-3H-pyrimido[5,4-c]carbazol-4(7H)-one], the IC50 in assay [2] is below 1 µM; in assay [3], above 20 µM; in assay [4], above 20 µM.

`O=C1NCCCc2c1ccc1c2c2ccccc2n1CCCF` [Compound 2-3]: the IC50 in assay [1] is above 20 µM; in assay [2] it was 1 to 5 µM; in assay [3], 5 to 20 µM; in assay [4], 5 to 20 µM.

Regarding `NC(=O)c1cccc2c1c1c3cc[nH]c(=O)c3ccc1n2CCCF` [Compound 8-4], the 50% inhibitory concentration (IC50) was above 20 µM in assay [1], 5 to 20 µM in assay [2], above 20 µM in assay [3] and above 20 µM in assay [4].

`O=C1NCCOc2c1ccc1c2c2ncccc2n1CCCF` [Compound 11-3]: the IC50 in assay [1] was above 20 µM; in assay [2], 1 to 5 µM; in assay [3] it was above 20 µM; in assay [4], above 20 µM.

On to `O=c1[nH]cnc2c1ccc1c2c2ccccc2n1CCCF` [Compound 5-2], for which the IC50 was above 20 µM in assay [1], below 1 µM in assay [2], above 20 µM in assay [3] and above 20 µM in assay [4].

On to `O=C1CCc2c1ccc1c2c2cc(Br)ccc2n1CCCF` [Compound 1-16], for which the IC50 is above 20 µM in assay [1], 1 to 5 µM in assay [2], above 20 µM in assay [3] and above 20 µM in assay [4].

For `CCCn1c2cccnc2c2c3c(ccc21)C(=O)CC3` [Compound 10-1, 6-Propyl-1,2-dihydro-6H-6,10-diazacyclopenta[c]fluoren-3-one], the half-inhibitory concentration (IC50) in assay [1] is 5 to 20 µM; in assay [2], 1 to 5 µM; in assay [3] it was 5 to 20 µM; in assay [4] it was above 20 µM.

Regarding `O=C1CCCc2c(ccc3c2c2ccccc2n3CCCF)N1` [Compound 2-4], the IC50 was 5 to 20 µM in assay [1], below 1 µM in assay [2], above 20 µM in assay [3] and 5 to 20 µM in assay [4].

`O=c1[nH]ccc2c1ccc1c2c2ncccc2n1CCCF` [Compound 13-1, 7-(3-Fluoropropyl)-3,7-dihydro-3,7,11-triaza-benzo[c]fluoren-4-one]: the concentration for half-maximal inhibition (IC50) in assay [1] is above 20 µM; in assay [2], below 1 µM; in assay [3], above 20 µM; in assay [4], above 20 µM.

Regarding `CCCn1c2ccccc2c2c3c(ccc21)C(=O)CC3` [Compound 1-1, 6-Propyl-1,2-dihydro-6H-cyclopenta[c]carbazol-3-one], the IC50 is above 20 µM in assay [1], below 1 µM in assay [2], above 20 µM in assay [3] and above 20 µM in assay [4].

With `O=C1NCCOc2c1ccc1c2c2ccccc2n1CCCF` [Compound 2-5], the half-maximal inhibitory concentration (IC50) in assay [1] was above 20 µM; in assay [2], below 1 µM; in assay [3], above 20 µM; in assay [4], above 20 µM.

For the compound `O=C1CCc2c1ccc1c2c2c(F)cccc2n1CCCF` [Compound 1-14], the IC50 in assay [1] is above 20 µM; in assay [2] it was below 1 µM; in assay [3], above 20 µM; in assay [4] it was above 20 µM.

For `O=c1[nH]ccc2c1ccc1c2c2ccccc2n1CCCF` [Compound 3-2], the IC50 in assay [1] was above 20 µM; in assay [2], below 1 µM; in assay [3], above 20 µM; in assay [4], above 20 µM.

Regarding `O=C1NCc2c1ccc1c2c2ncccc2n1CCCF` [Compound 10-6, 6-(3-fluoropropyl)-1,2-dihydro-6H-2,6,10-triazacyclopenta[c]fluoren-3-one], the IC50 is above 20 µM in assay [1], below 1 µM in assay [2], above 20 µM in assay [3] and above 20 µM in assay [4].

As for `CCCn1c2cccnc2c2c3cc[nH]c(=O)c3ccc21` [Compound 12-1, 7-Propyl-3,7-dihydro-3,7,11-triazabenzo[c]fluoren-4-one], the IC50 in assay [1] was above 20 µM; in assay [2], 5 to 20 µM; in assay [3], above 20 µM; in assay [4], above 20 µM.

Take `CCCn1c2ccccc2c2c3c(ccc21)CC(=O)N3C` [Compound 6-1, 1-Methyl-6-propyl-3,6-dihydro-1H-pyrrolo[3,2-c]carbazol-2-one]: the IC50 in assay [1] was above 20 µM; in assay [2] it was below 1 µM; in assay [3], above 20 µM; in assay [4] it was above 20 µM.

Turning to `O=C1COc2c(ccc3c2c2ncccc2n3CCCF)N1` [Compound 13-2], the half-inhibitory concentration (IC50) in assay [1] is above 20 µM; in assay [2] it was 5 to 20 µM; in assay [3], above 20 µM; in assay [4], above 20 µM.

On to `CCCn1c2ccccc2c2c3c(ccc21)C(=O)N(C)C3` [Compound 4-1, 2-Methyl-6-propyl-1,2-dihydro-6H-pyrrolo[3,4-c]carbazol-3-one], for which the half-maximal inhibitory concentration (IC50) in assay [1] is above 20 µM; in assay [2], below 1 µM; in assay [3], below 1 µM; in assay [4] it was 1 to 5 µM.

`O=C1NCCc2c1ccc1c2c2ncccc2n1CCCF` [Compound 11-2]: the half-inhibitory concentration (IC50) in assay [1] is above 20 µM; in assay [2], below 1 µM; in assay [3] it was above 20 µM; in assay [4], above 20 µM.

As for `O=c1[nH]c2ccc3c(c4ccccc4n3CCCF)c2o1` [Compound 8-2], the 50% inhibitory concentration (IC50) was above 20 µM in assay [1], below 1 µM in assay [2], 5 to 20 µM in assay [3] and 5 to 20 µM in assay [4].

In the case of `O=C1Cc2ccc3c(c2CN1)c1ccccc1n3CCCF` [Compound 1-12], the IC50 in assay [1] was above 20 µM; in assay [2], below 1 µM; in assay [3] it was above 20 µM; in assay [4], above 20 µM.

Take `O=C1COc2c1ccc1c2c2ccccc2n1CCCF` [Compound 1-7]: the half-maximal inhibitory concentration (IC50) in assay [1] is above 20 µM; in assay [2], below 1 µM; in assay [3] it was above 20 µM; in assay [4] it was above 20 µM.

As for `O=c1[nH]ncc2c1ccc1c2c2ccccc2n1CCCF` [Compound 5-3], the concentration for half-maximal inhibition (IC50) in assay [1] is above 20 µM; in assay [2] it was below 1 µM; in assay [3], above 20 µM; in assay [4] it was above 20 µM.

Regarding `CC(=O)c1ccc2c(c1)c1c3c(ccc1n2CCCF)C(=O)CC3` [Compound 1-15], the IC50 in assay [1] was above 20 µM; in assay [2] it was 1 to 5 µM; in assay [3], above 20 µM; in assay [4] it was above 20 µM.

Regarding `CCCn1c2ccccc2c2c3c(ccc21)C(=O)CO3` [Compound 1-6], the half-maximal inhibitory concentration (IC50) was above 20 µM in assay [1], below 1 µM in assay [2], above 20 µM in assay [3] and above 20 µM in assay [4].

As for `Cn1ccc2c(ccc3c2c2ncccc2n3CCCF)c1=O` [Compound 10-10], the IC50 is above 20 µM in assay [1], below 1 µM in assay [2], above 20 µM in assay [3] and above 20 µM in assay [4].

For `O=c1c2ccc3c(c2ccn1CCN1CCCC1)c1ccccc1n3CCCF` [Compound 4-4], the IC50 in assay [1], in assay [2], in assay [3] and in assay [4] was 5 to 20 µM each time.

For `O=c1[nH]ccc2c1ccc1c2c2ncccc2n1CCC(F)F` [Compound 15-1, 7-(3,3-Difluoropropyl)-3,7-dihydro-3,7,11-triaza-benzo[c]fluoren-4-one], the half-inhibitory concentration (IC50) in assay [1], in assay [2], in assay [3] and in assay [4] was above 20 µM throughout.

Take `CCCn1c2cccnc2c2c3ccn(C)c(=O)c3ccc21` [Compound 10-9]: the half-inhibitory concentration (IC50) is above 20 µM in assay [1], below 1 µM in assay [2], above 20 µM in assay [3] and above 20 µM in assay [4].

As to `Cn1c2ccccc2c2c3c(ccc21)C(=O)CC3` [Compound 1-3], the IC50 in assay [1], in assay [2], in assay [3] and in assay [4] was 5 to 20 µM each time.

For the compound `CCCn1c2ccccc2c2c3c(ccc21)C(=O)CCC3` [Compound 1-4], the IC50 is above 20 µM in assay [1], below 1 µM in assay [2], above 20 µM in assay [3] and above 20 µM in assay [4].

On to `O=c1c2ccc3c(c2ccn1CCO)c1ccccc1n3CCCF` [Compound 4-3], for which the IC50 in assay [1] is above 20 µM; in assay [2], 5 to 20 µM; in assay [3], above 20 µM; in assay [4] it was above 20 µM.

Consider `CCCn1c2cccnc2c2c3c(ccc21)C(=O)NC3` [Compound 10-5], for which the 50% inhibitory concentration (IC50) in assay [1] was above 20 µM; in assay [2], 1 to 5 µM; in assay [3], above 20 µM; in assay [4], above 20 µM.

Regarding `CCCn1c2ccccc2c2c3c(ccc21)C(=O)NC3` [Compound 1-10, 6-propyl-1,2-dihydro-6H-pyrrolo[3,4-c]carbazol-3-one], the IC50 in assay [1] was above 20 µM; in assay [2], below 1 µM; in assay [3], above 20 µM; in assay [4] it was above 20 µM.

With `CN1Cc2c(ccc3c2c2ccccc2n3CCCF)C1=O` [Compound 4-2], the IC50 in assay [1] is above 20 µM; in assay [2] it was below 1 µM; in assay [3], 1 to 5 µM; in assay [4], 5 to 20 µM.

For the compound `O=C1NCc2c1ccc1c2c2ccccc2n1CCCF` [Compound 1-11], the IC50 in assay [1] is above 20 µM; in assay [2] it was below 1 µM; in assay [3], above 20 µM; in assay [4], above 20 µM.

In the case of `CCCn1c2cccnc2c2c3c(ccc21)C(=O)NCC3` [Compound 11-1, 7-Propyl-1,2,3,7-tetrahydro-3,7,11-triazabenzo[c]fluoren-4-one], the concentration for half-maximal inhibition (IC50) in assay [1] is above 20 µM; in assay [2], 5 to 20 µM; in assay [3], above 20 µM; in assay [4], above 20 µM.
